What was measured:
Assay in all cases: Test B pre-/postemergence plant response
Type in all cases: in vivo
[1] = tested on: Italian ryegrass (Lolium multiflorum)
How it was run: (§1)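 Test compounds, formulated in a non-phytotoxic solvent mixture with surfactant, are applied to the soil surface (loam and sand blend) right after seeding, or sprayed over plants at the 1- to 4-leaf stage grown in peat moss/vermiculite medium. After 13 to 15 days under glasshouse conditions, each species is scored visually from 0 (no effect) to 100 (complete control) against controls.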

[2] = tested on: Surinam grass (Brachiaria decumbens)
How it was run: as §1

[3] = tested on: blackgrass (Alopecurus myosuroides)
How it was run: as §1

corn (Zea mays) = tested on: corn (Zea mays)
How it was run: as §1

[4] = tested on: downy bromegrass (Bromus tectorum)
How it was run: as §1

[5] = tested on: goosegrass (Eleusine indica)
How it was run: as §1

[6] = tested on: johnsongrass (Sorghum halepense)
How it was run: as §1

kochia (Kochia scoparia) = tested on: kochia (Kochia scoparia)
How it was run: as §1

[7] = tested on: lambsquarters (Chenopodium album)
How it was run: as §1

[8] = tested on: large crabgrass (Digitaria sanguinalis)
How it was run: as §1

[9] = tested on: pigweed (Amaranthus retroflexus)
How it was run: as §1

[10] = tested on: ragweed (common ragweed, Ambrosia elatior)
How it was run: as §1

soybean (Glycine max) = tested on: soybean (Glycine max)
How it was run: as §1

[11] = tested on: velvetleaf (Abutilon theophrasti)
How it was run: as §1

[12] = tested on: wheat (Triticum aestivum)
How it was run: as §1

wild oat (Avena fatua) = tested on: wild oat (Avena fatua)
How it was run: as §1

[13] = tested on: woolly cupgrass (Eriochloa villosa)
How it was run: as §1

[14] = tested on: yellow nutsedge (Cyperus esculentus)
How it was run: as §1

[15] = 250 g ai/ha, Preemergence, 0 to 100 scale
[16] = Postemergence, 31 g ai/ha, scale 0 to 100 (0 no effect, 100 complete control)
[17] = Postemergence, 62 g ai/ha, scale 0 (no effect) to 100 (complete control), 13 to 15 days
[18] = Postemergence, 125 g ai/ha, visual rating after 13 to 15 days, scale 0 (no effect) to 100 (complete control)
[19] = Postemergence, 250 g ai/ha, scale 0 to 100
[20] = Preemergence, 31 g ai/ha, scale 0 to 100 (0 no effect, 100 complete control)
[21] = Preemergence, 62 g ai/ha, scale 0 to 100, 0 no effect, 100 complete control
[22] = Preemergence, 125 g ai/ha, 0 to 100 scale

`O=C1CCCC(O)=C1C(=O)c1cnc(-c2ccccc2)n(-c2ccc(F)cc2)c1=O` [Compound 24] was tested, and the “Plant response rating, Ryegrass, Italian” value [1, 15] was 10, the “Plant response rating, Ryegrass, Italian” value [1, 16] was 0 and the “Plant response rating, Ryegrass, Italian” value [1, 17] was 5. For the same compound, the “Plant response rating, Ryegrass, Italian” value [1, 18] was 40, the “Ryegrass, Italian plant response rating” value [1, 19] was 50 and the “Plant response rating, Ryegrass, Italian” value [1, 20] was 0. The “Plant response rating, Ryegrass, Italian” value [1, 21] was 0, the “Ryegrass, Italian plant response rating” value [1, 22] was 10 and the “Plant response rating, Surinam Grass” value [2, 15] was 100. The “Plant response rating, Surinam Grass” value [2, 16] was 50, the “Plant response rating, Surinam Grass” value [2, 17] was 55 and the “Plant response rating, Surinam Grass” value [2, 18] was 60. For the same compound, the “Surinam Grass plant response rating” value [2, 19] was 80, the “Plant response rating, Surinam Grass” value [2, 20] was 65 and the “Plant response rating, Surinam Grass” value [2, 21] was 75. The “Surinam Grass plant response rating” value [2, 22] was 95, the “Plant response rating, Blackgrass” value [3, 15] was 10 and the “Plant response rating, Blackgrass” value [3, 16] was 5. The “Plant response rating, Blackgrass” value [3, 17] was 10, the “Plant response rating, Blackgrass” value [3, 18] was 40 and the “Blackgrass plant response rating” value [3, 19] was 50. The “Plant response rating, Blackgrass” value [3, 20] was 0, the “Plant response rating, Blackgrass” value [3, 21] was 0 and the “Blackgrass plant response rating” value [3, 22] was 0. The “Plant response rating, Corn” value (corn (Zea mays); [15]) was 5, the “Plant response rating, Corn” value (corn (Zea mays); [16]) was 30 and the “Plant response rating, Corn” value (corn (Zea mays); [17]) was 50. The “Plant response rating, Corn” value (corn (Zea mays); [18]) was 85, the “Corn plant response rating” value (corn (Zea mays); [19]) was 85 and the “Plant response rating, Corn” value (corn (Zea mays); [20]) was 0. The “Plant response rating, Corn” value (corn (Zea mays); [21]) was 0, the “Corn plant response rating” value (corn (Zea mays); [22]) was 0 and the “Plant response rating, Bromegrass, Downy” value [4, 15] was 20. The “Plant response rating, Bromegrass, Downy” value [4, 16] was 25, the “Plant response rating, Bromegrass, Downy” value [4, 17] was 50 and the “Plant response rating, Bromegrass, Downy” value [4, 18] was 70. The “Bromegrass, Downy plant response rating” value [4, 19] was 75, the “Plant response rating, Bromegrass, Downy” value [4, 20] was 0 and the “Plant response rating, Bromegrass, Downy” value [4, 21] was 0. For the same compound, the “Bromegrass, Downy plant response rating” value [4, 22] was 0, the “Plant response rating, Goosegrass” value [5, 15] was 100 and the “Plant response rating, Goosegrass” value [5, 16] was 85. For the same compound, the “Plant response rating, Goosegrass” value [5, 17] was 85, the “Plant response rating, Goosegrass” value [5, 18] was 85 and the “Goosegrass plant response rating” value [5, 19] was 98. The “Plant response rating, Goosegrass” value [5, 20] was 85, the “Goosegrass plant response rating” value [5, 22] was 100 and the “Plant response rating, Johnsongrass” value [6, 15] was 90. The “Plant response rating, Johnsongrass” value [6, 16] was 60, the “Plant response rating, Johnsongrass” value [6, 17] was 60 and the “Plant response rating, Johnsongrass” value [6, 18] was 70. The “Johnsongrass plant response rating” value [6, 19] was 80, the “Plant response rating, Johnsongrass” value [6, 20] was 20 and the “Plant response rating, Johnsongrass” value [6, 21] was 85. The “Johnsongrass plant response rating” value [6, 22] was 90, the “Plant response rating, Kochia” value (kochia (Kochia scoparia); [15]) was 100 and the “Plant response rating, Kochia” value (kochia (Kochia scoparia); [16]) was 70. The “Plant response rating, Kochia” value (kochia (Kochia scoparia); [17]) was 70, the “Plant response rating, Kochia” value (kochia (Kochia scoparia); [18]) was 80 and the “Kochia plant response rating” value (kochia (Kochia scoparia); [19]) was 100. For the same compound, the “Plant response rating, Kochia” value (kochia (Kochia scoparia); [20]) was 100, the “Plant response rating, Kochia” value (kochia (Kochia scoparia); [21]) was 100 and the “Kochia plant response rating” value (kochia (Kochia scoparia); [22]) was 100. The “Plant response rating, Lambsquarters” value [7, 15] was 100, the “Plant response rating, Lambsquarters” value [7, 16] was 90 and the “Plant response rating, Lambsquarters” value [7, 17] was 90. For the same compound, the “Plant response rating, Lambsquarters” value [7, 18] was 90, the “Lambsquarters plant response rating” value [7, 19] was 100 and the “Plant response rating, Lambsquarters” value [7, 20] was 98. The “Plant response rating, Lambsquarters” value [7, 21] was 100, the “Lambsquarters plant response rating” value [7, 22] was 100 and the “Plant response rating, Crabgrass, Large” value [8, 15] was 100. The “Plant response rating, Crabgrass, Large” value [8, 16] was 70, the “Plant response rating, Crabgrass, Large” value [8, 17] was 75 and the “Plant response rating, Crabgrass, Large” value [8, 18] was 95. The “Crabgrass, Large plant response rating” value [8, 19] was 100, the “Plant response rating, Crabgrass, Large” value [8, 20] was 90 and the “Plant response rating, Crabgrass, Large” value [8, 21] was 98. The “Crabgrass, Large plant response rating” value [8, 22] was 100, the “Plant response rating, Pigweed” value [9, 15] was 100 and the “Plant response rating, Pigweed” value [9, 16] was 70. For the same compound, the “Plant response rating, Pigweed” value [9, 17] was 80, the “Plant response rating, Pigweed” value [9, 18] was 80 and the “Pigweed plant response rating” value [9, 19] was 80. The “Plant response rating, Pigweed” value [9, 20] was 98, the “Plant response rating, Pigweed” value [9, 21] was 100 and the “Pigweed plant response rating” value [9, 22] was 100. For the same compound, the “Plant response rating, Ragweed” value [10, 15] was 100, the “Plant response rating, Ragweed” value [10, 16] was 70 and the “Plant response rating, Ragweed” value [10, 17] was 80. The “Plant response rating, Ragweed” value [10, 18] was 90, the “Ragweed plant response rating” value [10, 19] was 98 and the “Plant response rating, Ragweed” value [10, 20] was 85. For the same compound, the “Plant response rating, Ragweed” value [10, 21] was 90, the “Ragweed plant response rating” value [10, 22] was 98 and the “Plant response rating, Soybean” value (soybean (Glycine max); [15]) was 85. The “Plant response rating, Soybean” value (soybean (Glycine max); [16]) was 85, the “Plant response rating, Soybean” value (soybean (Glycine max); [17]) was 95 and the “Plant response rating, Soybean” value (soybean (Glycine max); [18]) was 95. For the same compound, the “Soybean plant response rating” value (soybean (Glycine max); [19]) was 100, the “Plant response rating, Soybean” value (soybean (Glycine max); [20]) was 45 and the “Plant response rating, Soybean” value (soybean (Glycine max); [21]) was 60. For the same compound, the “Soybean plant response rating” value (soybean (Glycine max); [22]) was 80, the “Plant response rating, Velvetleaf” value [11, 15] was 100 and the “Plant response rating, Velvetleaf” value [11, 16] was 75. The “Plant response rating, Velvetleaf” value [11, 17] was 90, the “Plant response rating, Velvetleaf” value [11, 18] was 98 and the “Velvetleaf plant response rating” value [11, 19] was 98. The “Plant response rating, Velvetleaf” value [11, 20] was 98, the “Plant response rating, Velvetleaf” value [11, 21] was 100 and the “Velvetleaf plant response rating” value [11, 22] was 100. For the same compound, the “Plant response rating, Wheat” value [12, 15] was 0, the “Plant response rating, Wheat” value [12, 16] was 5 and the “Plant response rating, Wheat” value [12, 17] was 10. For the same compound, the “Plant response rating, Wheat” value [12, 18] was 30, the “Wheat plant response rating” value [12, 19] was 50 and the “Plant response rating, Wheat” value [12, 20] was 0. For the same compound, the “Plant response rating, Wheat” value [12, 21] was 0, the “Wheat plant response rating” value [12, 22] was 0 and the “Plant response rating, Oat, Wild” value (wild oat (Avena fatua); [15]) was 80. The “Plant response rating, Oat, Wild” value (wild oat (Avena fatua); [16]) was 40, the “Plant response rating, Oat, Wild” value (wild oat (Avena fatua); [17]) was 50 and the “Plant response rating, Oat, Wild” value (wild oat (Avena fatua); [18]) was 60. For the same compound, the “Oat, Wild plant response rating” value (wild oat (Avena fatua); [19]) was 80, the “Plant response rating, Oat, Wild” value (wild oat (Avena fatua); [20]) was 0 and the “Plant response rating, Oat, Wild” value (wild oat (Avena fatua); [21]) was 0. The “Oat, Wild plant response rating” value (wild oat (Avena fatua); [22]) was 0, the “Plant response rating, Cupgrass, Woolly” value [13, 15] was 90 and the “Plant response rating, Cupgrass, Woolly” value [13, 16] was 80. For the same compound, the “Plant response rating, Cupgrass, Woolly” value [13, 17] was 80, the “Plant response rating, Cupgrass, Woolly” value [13, 18] was 95 and the “Cupgrass, Woolly plant response rating” value [13, 19] was 95. The “Plant response rating, Cupgrass, Woolly” value [13, 20] was 5, the “Plant response rating, Cupgrass, Woolly” value [13, 21] was 70 and the “Cupgrass, Woolly plant response rating” value [13, 22] was 85. The “Plant response rating, Nutsedge, Yellow” value [14, 15] was 90, the “Plant response rating, Nutsedge, Yellow” value [14, 16] was 20 and the “Plant response rating, Nutsedge, Yellow” value [14, 17] was 30. The “Plant response rating, Nutsedge, Yellow” value [14, 18] was 30, the “Nutsedge, Yellow plant response rating” value [14, 19] was 70 and the “Plant response rating, Nutsedge, Yellow” value [14, 20] was 30. The “Plant response rating, Nutsedge, Yellow” value [14, 21] was 50 and the “Nutsedge, Yellow plant response rating” value [14, 22] was 85.

Source: patent US8952024B2, “Herbicidal pyrimidone derivatives” (E I du Pont de Nemours and Company, priority 2009, dated 2015)
